Measurements published in US11213512B2, “Bis-amino acid based compound and use thereof” (THE CURATORS OF THE UNIVERSITY OF MISSOURI, priority 2016, dated 2022).

Columns and labels:
Tet^R E. coli [1] = assay: Recovery of tetracycline activity (co-administration, MIC of tetracycline); assay type: cell-based, Escherichia coli; conditions: for Fold Recovery of tetracycline activity: tetracycline alone 900 μM
Protocol: (§1) MIC experiments were performed as described in the Clinical and Laboratory Standards Institute (CLSI) standard microdilution protocols. Bacteria was grown overnight from one CFU in media without antibiotics. Tet^R E. coli was grown in media containing 100 μg/mL Ampicillin. On the day of experiment, bacteria were knocked back to O.D. 600 nm=0.550 in the same media. These exponential phase bacteria were then diluted in antibiotics-free media to get […]. In a 96-well plate either L. B. Miller or MHII media was added followed by serially diluted compounds 1-11, tetracycline, or ampicillin. All the tryptophan based compounds were dissolved in DMSO and the final concentration of DMSO in each well was kept constant at 0.5% (v/v).
(§2) For the combination experiments, first, the BT or control was added to the media in the well followed by the antibiotics. The contents of the well were mixed before adding 20 μL of bacteria to get 4×10^5 CFU/mL per well. The plates were incubated at 37° C., 200 RPM for 24 hours before collecting results on the Biotek Cytation 3 plate reader. No more than three plates were stacked on top of each other at a time. Optical density of the wells was determined at λ=600 nm. Cells alone were considered as 0% inhibition and media alone was considered as 100% inhibition. Any inhibition greater than 80% was considered as the MIC. The results were reproduced three times before reporting.
First, MICs were determined for compounds 2, 3, 5, 6, 7, and 10 against Tet^R E. coli. Compounds 6 (para-Ph) and 7 (n-C3) were also included as controls. The MICs against Tet^R E. coli were refined compared to the power series and are reported as a range in Table 1 above. The MICs of tetracycline and ampicillin against Tet^R E. coli were 900±100 μM and >1000 μM, respectively. For comparison, the MIC for tetracycline against non-resistant E. coli K-12 is ˜3 μM. Ampicillin was used to maintain selective pressure for the expression of pBR322 plasmid. Ampicillin was omitted from experiments that contained tetracycline. Next, the MIC of tetracycline was determined when co-administered with 2, 3, 5, 6, 7, or 10. The results are represented as the MIC of tetracycline in the presence of the indicated BTs. The fold-recovery was determined by dividing the MIC of tetracycline when used alone by the MIC of tetracycline determined in the presence of the compounds.
The fractional inhibitory concentration (FIC) is often used as a measure of synergism or antagonism in comparing two or more compounds (Berenbaum, Pharmacol. Rev. 1989, 41, 93-141). The FIC is the sum of the fraction of the MIC for each compound used. Synergy is defined broadly as FIC<1, or more conservatively as FIC≤0.5. Under the broad definition, all compounds tested can be said to have at least moderate synergy with tetracycline. All arene-based compounds fit the more conservative definition of synergy with FIC values of 0.5 or less at the tested concentrations.

E. coli K12 = assay: MIC, CLSI/NCCLS broth microdilution; assay type: cell-based, Escherichia coli; conditions: Escherichia coli, K12, 24 h, read-out: Minimal Inhibitory Concentration (MIC) E. coli K12
Protocol: (§3) Two different strains of E. coli (Gram-negative) were used. The laboratory strain of E. coli, K-12 (ATCC Accession No. 700926), was used for preliminary MIC determinations. The tetracycline resistant strain of E. coli (Tet^R) was prepared by transforming competent JM109 E. coli (Promega) with the pBR322 plasmid (Carolina Biologicals) using the manufacturers protocol. This plasmid contains two resistance genes: the tetA gene expresses the tetracycline resistance TetA efflux pump (Sapunaric and Levy, Microbiol. 2005, 151, 2315-2322) and the amp^R gene expresses a β-lactamase enzyme (Bolivar, et al; Gene 1977, 2, 95-113) that cleaves the four membered ring of penicillin derivatives. The resulting E. coli, which we designate Tet^R E. coli, is both tetracycline and ampicillin resistant. The TetA efflux pump belongs to the major facilitator superfamily (MFS), spans the cytoplasmic membrane, and transports tetracycline from the cell cytoplasm to the periplasmic space (Thanassi, et al., J. Bacteriol. 1995, 177, 998-1007). This active efflux utilizes the proton gradient as an energy source (Levy, Antimicrob. Agents Chemother. 1992, 36, 695-703). One Gram-positive strain, S. aureus (ATCC Accession No. 29213), used for MIC study expresses the MFS type NorA efflux pump and is methicillin sensitive. MFS type efflux pumps are clinically relevant for resistance in both Gram-positive and Gram-negative bacteria (Sun, et al., Biochem. Biophys. Res. Commun. 2014, 453, 254-267). A Staphylococcus aureus 1199B strain that overexpresses the NorA efflux pump was also used to conduct checkerboard experiments (see, Example 8 below). This strain of S. aureus 1199B is resistant to both norfloxacin and ethidium bromide.
(§4) K-12 E. coli and S. aureus were acquired from ATCC. The S. aureus strain was used in the BSL-2 facility. K-12 E. coli was grown in L. B. Miller media (Sigma-Aldrich) and S. aureus was grown in cation adjusted MHII media (Sigma-Aldrich). Tet^R E. coli was grown in L. B. Miller media containing 100 μg/mL Ampicillin.
as §1, §2
(§5) All minimum inhibitory concentration (MIC) values for compounds 1-11 were determined according to the methods prescribed by the National Committee for Clinical Laboratory Standards (NCCLS, Methods for Dilution Antimicrobial Susceptibility Tests for Bacteria that grow aerobically; National Committee for Clinical Laboratory Standards 2000, 5th Edition, M7-A5). […]

Tet^R E. coli [2] = assay: MIC, CLSI/NCCLS broth microdilution; assay type: cell-based, Escherichia coli; conditions: 24 h
Protocol: as §3, §4, §1, §2, §5

[3] = tested on: S. aureus (ATCC Accession No. 29213); assay: MIC, CLSI/NCCLS broth microdilution; assay type: cell-based, Staphylococcus aureus; conditions: Staphylococcus aureus, ATCC29213; >80% growth inhibition, 24 h, 37° C.; read-out: Minimal Inhibitory Concentration (MIC) S. aureus
Protocol: as §3, §4, §1, §2, §5

[4] = compound at ¼ MIC (2: 12, 3: 7, 5: 14, 6: 30, 7: 30, 10: 2.5 μM)
[5] = compound at ½ MIC (2: 24, 3: 14, 5: 28, 6: 60, 7: 60, 10: 5 μM)

For `Cl.Cl.N[C@H](Cc1c[nH]c2ccccc12)C(=O)Nc1cccc(NC(=O)[C@H](N)Cc2c[nH]c3ccccc23)c1` [Compound 3, (2R,2′R)-1,1′-(1,3-Phenylenebis(azanediyl))bis(3-(1H-indol-3-yl)-1-oxopropan-2-aminium) chloride], the “FIC (fractional inhibitory concentration) with tetracycline” value (Tet^R E. coli [1]; [4]) was 0.50, the “MIC [Tet] (tetracycline in the presence of the compound)” value (Tet^R E. coli [1]; [4]) was 225 µM and the “Fold Recovery of tetracycline activity” value (Tet^R E. coli [1]; [4]) was 4-fold. The “FIC (fractional inhibitory concentration) with tetracycline” value (Tet^R E. coli [1]; [5]) was 0.63, the “MIC [Tet] (tetracycline in the presence of the compound)” value (Tet^R E. coli [1]; [5]) was 112.5 µM and the “Fold Recovery of tetracycline activity” value (Tet^R E. coli [1]; [5]) was 8-fold. The melting point was 242 °C (dec.), the MIC (E. coli K12) was 64 µM and the “Minimal Inhibitory Concentration (MIC) E. coli Tet^R” value (Tet^R E. coli [2]; >80% growth inhibition, 37° C., substance alone) was 28 ± 4 µM. For the same compound, the MIC (Tet^R E. coli [2]; Escherichia coli, read-out: Minimal Inhibitory Concentration (MIC) E. coli Tet^R) was 28 ± 4 µM and the MIC [3] was 32 µM.
